This is an account of results in the RepoRT retention time repository (doi:10.1016/j.jchromb.2020.122105).

The structures appear in SMILES notation.

Holding throughout (settings): stereoisomer not certain
Data set [1] can be described thus: RP, Waters CORTECS T3, 100 × 2.1 mm, 2.7 µm, 0.15 mL/min, estimated dead time 1.5 min; A: water + 0.1% formic acid, pH 3; B: methanol + 0.1% formic acid, pH 3; gradient (min/%B) 0/5 5/5 25/95 25.1/100 35/100 35.1/5 45/5.
A short description of data set [2]: HILIC, Merck SeQuant ZIC-HILIC, 150 × 2.1 mm, 5 µm, 0.75 mL/min, estimated dead time 0.44 min; A: water + 10 mM ammonium formate, pH 6; B: 5% water + 95% acetonitrile + 10 mM ammonium formate, pH 6; gradient (min/%B) 0/95 5/95 20/57 25/57 30/95 40/95.
The nature of data set [3]: RP, Waters CORTECS T3, 100 × 2.1 mm, 2.7 µm, 0.3 mL/min, estimated dead time 0.73 min; A: water + 0.1% formic acid, pH 3; B: methanol + 0.1% formic acid, pH 3; gradient (min/%B) 0/0 5/0 25/100 30/100 30.1/0 35/0.
Data set [4] can be described thus: RP, Waters CORTECS T3, 100 × 2.1 mm, 2.7 µm, 0.1 mL/min, estimated dead time 2.2 min; A: water + 0.1% formic acid, pH 3; B: methanol + 0.1% formic acid, pH 3; gradient (min/%B) 0/0 1/0 6/5 30/100 35/100 35.1/0 40/0.
A short description of data set [5]: RP, Waters CORTECS T3, 100 × 2.1 mm, 2.7 µm, 0.25 mL/min, estimated dead time 0.88 min; A: water + 0.1% formic acid, pH 3; B: methanol + 0.1% formic acid, pH 3; gradient (min/%B) 0/0 1/0 6/5 30/100 35/100 35.1/0 40/0.
Data set [6] can be described thus: RP, Waters CORTECS T3, 100 × 2.1 mm, 2.7 µm, 0.3 mL/min, estimated dead time 0.73 min; A: water + 0.1% formic acid, pH 3; B: methanol + 0.1% formic acid, pH 3; gradient (min/%B) 0/0 1/0 6/5 30/100 35/100 35.1/0 40/0.
The nature of data set [7]: RP, Waters CORTECS T3, 100 × 2.1 mm, 2.7 µm, 0.15 mL/min, estimated dead time 1.5 min; A: water + 0.1% formic acid, pH 3; B: methanol + 0.1% formic acid, pH 3; gradient (min/%B) 0/0 1/0 6/5 30/100 35/100 35.1/0 40/0.
A short description of data set [8]: RP, Waters ACQUITY UPLC BEH C18, 100 × 2.1 mm, 1.7 µm, 0.2 mL/min, estimated dead time 1.1 min; A: water + 0.025% formic acid + 20 mM ammonium acetate + 0.055% ammonium hydroxide, pH 7; B: methanol; gradient (min/%B) 0/5 5/5 25/100 30/100 30.1/5 35/5.
Data set [9] is described as follows: RP, Waters CORTECS T3, 100 × 2.1 mm, 2.7 µm, 0.1 mL/min, estimated dead time 2.2 min; A: water + 0.1% formic acid, pH 3; B: methanol + 0.1% formic acid, pH 3; gradient (min/%B) 0/5 5/5 25/95 25.1/100 35/100 35.1/5 45/5.
Data set [10] can be described thus: RP, Waters CORTECS T3, 100 × 2.1 mm, 2.7 µm, 0.25 mL/min, estimated dead time 0.88 min; A: water + 0.1% formic acid, pH 3; B: methanol + 0.1% formic acid, pH 3; gradient (min/%B) 0/5 5/5 25/95 25.1/100 35/100 35.1/5 45/5.
A short description of data set [11]: RP, Waters CORTECS T3, 100 × 2.1 mm, 2.7 µm, 0.3 mL/min, estimated dead time 0.73 min; A: water + 0.1% formic acid, pH 3; B: methanol + 0.1% formic acid, pH 3; gradient (min/%B) 0/5 5/5 25/95 25.1/100 35/100 35.1/5 45/5.
The nature of data set [12]: RP, Waters CORTECS T3, 100 × 2.1 mm, 2.7 µm, 0.3 mL/min, estimated dead time 0.73 min; A: water + 0.1% formic acid, pH 3; B: methanol + 0.1% formic acid, pH 3; gradient (min/%B) 0/0 1/0 6/5 30/100 35/100 35.1/0 40/0. The source holds these as a separate data set.
Data set [13] in a line: RP, Waters CORTECS T3, 100 × 2.1 mm, 2.7 µm, 0.2 mL/min, estimated dead time 1.1 min; A: water + 0.1% formic acid, pH 3; B: methanol + 0.1% formic acid, pH 3; gradient (min/%B) 0/0 1/0 6/5 30/100 35/100 35.1/0 40/0.
Data set [14] in a line: RP, Waters ACQUITY UPLC BEH C18, 100 × 2.1 mm, 1.7 µm, 0.1 mL/min, estimated dead time 2.2 min; A: water + 0.045% formic acid + 0.11% ammonium hydroxide, pH 7; B: methanol; gradient (min/%B) 0/5 5/5 25/95 25.1/100 35/100 35.1/5 45/5.
A short description of data set [15]: HILIC, Merck SeQuant ZIC-HILIC, 150 × 2.1 mm, 5 µm, 0.75 mL/min, estimated dead time 0.44 min; A: water + 0.1% acetic acid + 10 mM ammonium acetate, pH 4; B: 5% water + 95% acetonitrile + 0.1% acetic acid + 10 mM ammonium acetate, pH 4; gradient (min/%B) 0/95 5/95 20/57 25/57 30/95 40/95.
Data set [16] is described as follows: RP, Waters ACQUITY UPLC BEH C18, 100 × 2.1 mm, 1.7 µm, 0.1 mL/min, estimated dead time 2.2 min; A: water + 0.1% formic acid, pH 3; B: methanol + 0.1% formic acid, pH 3; gradient (min/%B) 0/5 5/5 25/95 25.1/100 35/100 35.1/5 45/5.
Experiment in data set [17]: as above
This is another data set of the same source.

`CC1NC(=O)NC1CCCCCC(=O)O` (configuration not stated) [DETHIOBIOTIN]: the LC retention time in data set [1] is 15.1 min; in [2], 3.19 min; in [3], 13.2 min; in [4], 13.9 min; in data set [5], 14.9 min; in data set [6], 14.3 min. Further, the LC retention time in data set [7] was 16.9 min; in data set [8], 8.17 min; in data set [9], 17.1 min; in data set [10], 13.2 min; in data set [11], 12.6 min; in data set [12], 14.3 min. Also, the LC retention time in data set [13] was 15.7 min; in data set [14] it was 12.5 min.

In the case of `Nc1nc2nccnc2c(=O)[nH]1` [PTERIN], the LC retention time in data set [15] is 5.43 min; in [1] it was 3.45 min; in data set [2], 5.74 min; in data set [3], 3.11 min; in data set [6] it was 2.75 min; in [7], 5.95 min. The LC retention time in [8] is 1.41 min; in data set [9] it was 4.93 min; in [10] it was 2.11 min; in data set [11], 1.68 min; in [12], 3.11 min; in [13], 4.26 min. In data set [16], the LC retention time was 2.72 min.

Consider `Cc1cc2nc3c(=O)[nH]c(=O)nc-3n(CC(O)C(O)C(O)CO)c2cc1C` (configuration not stated) [RIBOFLAVIN], for which the LC retention time in data set [1] was 14.1 min; in data set [3], 12.5 min; in [4], 13.1 min; in data set [5], 14 min; in data set [6], 13.5 min; in data set [7], 15.8 min. In addition, the LC retention time in data set [8] is 11.9 min; in [9], 16 min; in [10], 12.4 min; in [11] it was 11.9 min; in data set [12], 13.5 min; in data set [13] it was 14.7 min. For the same compound, the LC retention time in data set [17], in data set [14] and in data set [16] was 15.7 min in each case.

`CC(=O)N[C@H](Cc1c[nH]c2ccccc12)C(=O)O` [N-ACETYL-D-TRYPTOPHAN]: the LC retention time is 8.28 min in data set [15]; 15.2 min in data set [1]; 8.49 min in data set [2]; 13.2 min in data set [3]; 13.9 min in data set [4]; 14.8 min in [5]. Moreover, the LC retention time in data set [6] is 14.2 min; in data set [7] it was 17 min; in data set [8], 9.66 min; in [9] it was 17.3 min; in [10] it was 13.2 min; in data set [11] it was 12.5 min. The LC retention time in data set [12] is 14.2 min; in [13] it was 15.7 min; in [14], 14.1 min.

On to `O=c1[nH]c(=O)c2[nH]cnc2[nH]1` [XANTHINE], for which the LC retention time in data set [15] is 5.71 min; in data set [1] it was 3.01 min; in data set [2] it was 5.7 min; in data set [3], 2.39 min; in [5], 2.63 min; in data set [6], 2.17 min. In addition, the LC retention time was 4.65 min in data set [7]; 1.36 min in data set [8]; 4.3 min in [9]; 1.85 min in [10]; 1.51 min in data set [11]; 2.39 min in data set [12]. Moreover, the LC retention time is 3.29 min in [13], 2.66 min in [17] and 2.72 min in [16].

`CC(C)(CO)C(O)C(=O)NCCC(=O)O` [D-PANTOTHENIC ACID]: the LC retention time in data set [15] is 9.3 min; in data set [1] it was 9.08 min; in data set [2] it was 10.5 min; in [3], 8.6 min; in [4], 7.4 min; in data set [5] it was 8.69 min. Moreover, the LC retention time in [6] is 7.94 min; in data set [7], 10.9 min; in data set [8], 1.46 min; in [9], 11.2 min; in data set [10], 6.32 min; in data set [11], 5.14 min. The figures for the LC retention time in [12] and in data set [13] were 8.1 min and 9.51 min, respectively.

As for `O=C(O)c1cc(=O)c2ccccc2[nH]1` [4-HYDROXY-2-QUINOLINECARBOXYLIC ACID], the LC retention time in data set [1] is 12.1 min; in [3] it was 10.5 min; in [4], 10.7 min; in data set [5], 11.4 min; in data set [6], 10.7 min; in [7], 13.6 min. Further, the LC retention time in data set [8] was 5.96 min; in [9] it was 14.2 min; in data set [10], 9.94 min; in data set [11] it was 9.2 min; in data set [12], 10.8 min; in data set [13] it was 12.2 min. Further, the LC retention time was 14.3 min in data set [17], 11.7 min in [14] and 14.3 min in data set [16].

With `N[C@@H](Cc1cc(I)c(Oc2ccc(O)cc2)c(I)c1)C(=O)O` [3,5-DIIODO-L-THYRONINE], the LC retention time in [1] is 18.1 min; in [2], 8.69 min; in [3] it was 16.1 min; in [4] it was 17.1 min; in [5], 18.6 min; in data set [6], 18 min. Besides, the LC retention time in [7] was 20.4 min; in data set [8], 15.8 min; in data set [9] it was 19.9 min; in data set [10] it was 16.4 min; in data set [11], 15.9 min; in [12] it was 18 min. Besides, the LC retention time in data set [13] is 19.3 min; in data set [17], 20.2 min; in [14] it was 20.4 min; in data set [16], 20.2 min.
